What was measured:
Caspase-8 [1] = molecular target: T1, Caspase-8 (Homo sapiens, UniProt Q14790); assay: Inhibition of Caspase-8 enzyme
Caspase-3 [2] = molecular target: T2, Caspase-3 (Homo sapiens, UniProt P42574); assay: Inhibition of Caspase-3
T2 sequence (P42574 whole entry): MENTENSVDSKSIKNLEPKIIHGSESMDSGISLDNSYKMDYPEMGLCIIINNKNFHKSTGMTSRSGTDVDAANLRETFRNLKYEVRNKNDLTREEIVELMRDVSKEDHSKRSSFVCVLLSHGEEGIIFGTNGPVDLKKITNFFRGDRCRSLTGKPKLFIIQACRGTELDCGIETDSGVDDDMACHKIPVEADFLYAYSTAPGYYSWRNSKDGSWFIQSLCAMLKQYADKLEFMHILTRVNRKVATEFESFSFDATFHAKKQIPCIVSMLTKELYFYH

Caspase-6 [3] = molecular target: T3, Caspase-6 (Homo sapiens, UniProt P55212); assay: Inhibition of Caspase-6
T3 sequence (P55212 whole entry): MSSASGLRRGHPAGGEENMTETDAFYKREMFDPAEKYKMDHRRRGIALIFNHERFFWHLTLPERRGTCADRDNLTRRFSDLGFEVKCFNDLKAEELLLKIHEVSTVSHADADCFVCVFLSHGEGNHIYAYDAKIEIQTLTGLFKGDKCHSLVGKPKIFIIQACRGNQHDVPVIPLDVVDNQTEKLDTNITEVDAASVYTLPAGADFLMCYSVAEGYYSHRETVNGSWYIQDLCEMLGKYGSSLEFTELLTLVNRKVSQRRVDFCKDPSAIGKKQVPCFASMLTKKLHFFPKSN

Caspase-7 [4] = molecular target: T4, Caspase-7 (Homo sapiens, UniProt P55210); assay: Inhibition of Caspase-7 enzyme
T4 sequence (P55210 whole entry): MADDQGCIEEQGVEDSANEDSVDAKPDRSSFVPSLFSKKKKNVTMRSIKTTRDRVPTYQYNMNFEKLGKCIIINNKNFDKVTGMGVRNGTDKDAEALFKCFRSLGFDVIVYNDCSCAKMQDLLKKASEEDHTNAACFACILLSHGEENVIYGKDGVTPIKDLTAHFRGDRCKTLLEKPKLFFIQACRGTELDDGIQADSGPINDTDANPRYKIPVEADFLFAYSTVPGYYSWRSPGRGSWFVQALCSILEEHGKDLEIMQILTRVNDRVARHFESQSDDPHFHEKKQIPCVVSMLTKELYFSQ

Caspase-1 [5] = molecular target: T5, Caspase-1 (Homo sapiens, UniProt P29466); assay: Inhibition of Caspase-1 enzyme
T5 sequence (P29466 whole entry): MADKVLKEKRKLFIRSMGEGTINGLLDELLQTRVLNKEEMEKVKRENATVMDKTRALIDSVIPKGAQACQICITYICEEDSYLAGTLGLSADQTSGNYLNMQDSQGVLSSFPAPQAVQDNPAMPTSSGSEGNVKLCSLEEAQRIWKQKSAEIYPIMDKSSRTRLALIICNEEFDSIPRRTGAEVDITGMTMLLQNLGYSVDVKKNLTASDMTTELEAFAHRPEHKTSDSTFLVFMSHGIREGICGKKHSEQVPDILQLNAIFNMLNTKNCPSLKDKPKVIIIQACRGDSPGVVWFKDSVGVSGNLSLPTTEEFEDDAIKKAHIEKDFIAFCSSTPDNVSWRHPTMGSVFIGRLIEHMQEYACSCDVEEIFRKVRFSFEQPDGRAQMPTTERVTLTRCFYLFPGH

Caspase-8 [6] = molecular target: T1, Caspase-8; assay: Inhibitory concentration of compound required against Caspase-8 enzyme compared to acylated dipeptides
Caspase-6 [7] = molecular target: T3, Caspase-6; assay: Inhibitory concentration of compound required against Caspase-6 enzyme compared to acylated dipeptides
Caspase-7 [8] = molecular target: T4, Caspase-7; assay: Inhibitory concentration of compound required against Caspase-7 enzyme compared to acylated dipeptides
Caspase-3 [9] = molecular target: T2, Caspase-3; assay: Inhibitory concentration of compound required against Caspase-3 enzyme compared to acylated dipeptides
Caspase-1 [10] = molecular target: T5, Caspase-1; assay: Inhibitory concentration of compound required against Caspase-1 enzyme compared to acylated dipeptides

T1 sequence (Q14790 217-374 limits assumed): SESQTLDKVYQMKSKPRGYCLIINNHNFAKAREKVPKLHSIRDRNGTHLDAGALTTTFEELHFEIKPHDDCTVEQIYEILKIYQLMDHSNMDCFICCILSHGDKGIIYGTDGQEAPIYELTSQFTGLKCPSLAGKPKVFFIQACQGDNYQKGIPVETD
T1 sequence (Q14790 385-479 limits assumed): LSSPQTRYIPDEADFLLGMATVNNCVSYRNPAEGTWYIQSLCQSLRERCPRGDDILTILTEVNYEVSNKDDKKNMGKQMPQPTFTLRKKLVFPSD

Compound	IC50 (Caspase-8 [1])	IC50 (Caspase-3 [2])	IC50 (Caspase-6 [3])	IC50 (Caspase-7 [4])	IC50 (Caspase-1 [5])	IC50 (Caspase-8 [6])	IC50 (Caspase-6 [7])	IC50 (Caspase-7 [8])	IC50 (Caspase-3 [9])	IC50 (Caspase-1 [10])
CC(C)CC(NC(=O)[C@@H](CCC(=O)O)Oc1cccc2ccccc12)C(=O)N[C@H]1CC(=O)OC1O (some centres not stated)	12 nM	21 nM	15 nM	587 nM						
CC(C)C[C@H](NC(=O)C(C)Nc1cccc2ccccc12)C(=O)N[C@H]1CC(=O)OC1O (some centres not stated)	17 nM	512 nM	310 nM	7240 nM						
CC(C)C(NC(=O)COc1c(C(=O)O)ccc2ccccc12)C(=O)N[C@H]1CC(=O)OC1O (some centres not stated)	48 nM	54 nM	1430 nM	1650 nM	385 nM					
CC(C)CC(NC(=O)[C@H](CCC(=O)O)Oc1cccc2ccccc12)C(=O)N[C@H]1CC(=O)OC1O (some centres not stated)	31 nM	3.8 nM	3.5 nM	130 nM						
CC(=O)N[C@@H](CC(=O)O)C(=O)N[C@@H](CCC(=O)O)C(=O)N[C@H](C(=O)N[C@H]1CC(=O)OC1O)C(C)C (some centres not stated)						80 nM	10 nM	10 nM	3.5 nM	50 nM
CC(C)C(NC(=O)CNc1cccc2ccccc12)C(=O)N[C@H]1CC(=O)OC1O (some centres not stated)	450 nM	1550 nM	7000 nM	6140 nM	15 nM					
CC(C)C(NC(=O)CCOc1cccc2ccccc12)C(=O)N[C@H]1CC(=O)OC1O (some centres not stated)	19600 nM	4400 nM	4600 nM	37000 nM	250 nM					
CC(C)CC(NC(=O)CNc1cccc2ccccc12)C(=O)N[C@H]1CC(=O)OC1O (some centres not stated)	7.6 nM	13 nM	37 nM	1320 nM	33 nM					
CC(C)CC(NC(=O)CNCC(Cc1ccccc1)c1ccccc1)C(=O)N[C@H]1CC(=O)OC1O (some centres not stated)	990 nM	320 nM	589 nM	2920 nM	790 nM					
CC(C)CC(NC(=O)CNc1cccc(Oc2ccccc2)c1)C(=O)N[C@H]1CC(=O)OC1O (some centres not stated)	670 nM	230 nM	308 nM	2670 nM	330 nM					
CC(C)C(NC(=O)COc1cccc2ccccc12)C(=O)N[C@H]1CC(=O)OC1O (some centres not stated)	1200 nM	355 nM	> 10000 nM	2100 nM	336 nM					
CC(C)C(NC(=O)COc1cc2ccccc2cc1C(=O)O)C(=O)N[C@H]1CC(=O)OC1O (some centres not stated)	200 nM	731 nM	1900 nM	17000 nM	1890 nM					
CC(C)C(NC(=O)COc1ccc2ccccc2c1C(=O)O)C(=O)N[C@H]1CC(=O)OC1O (some centres not stated)	733 nM	401 nM	3610 nM	10900 nM	2960 nM					
CC(C)C(NC(=O)COc1cc2ccccc2cc1NS(=O)(=O)C(F)(F)F)C(=O)N[C@H]1CC(=O)OC1O (some centres not stated)	1420 nM	1920 nM	3030 nM	43700 nM	2180 nM					
CC(C)C(NC(=O)COc1cccc2c(NS(=O)(=O)C(F)(F)F)cccc12)C(=O)N[C@H]1CC(=O)OC1O (some centres not stated)	615 nM	207 nM	1010 nM	11000 nM	127 nM					
